Where a name gives a salt, the structure may show the parent alone.
Assays:
Format in all cases: cell-based
[1] = test system: IL-6 production in A549 cells (human lung epithelial cell line); test: Inhibitory activity on IL-6 production (TNF-α-stimulated A549 cells, ELISA); settings: TNF-α stimulation, incubation for 24 hours, IL-6 in supernatant by ELISA
Method: (§1) (1) Assaying Inhibitory Activity on IL-6 Production and Cellular Toxicity
(§2) 1.5×10^4 of A549 cells (human lung epithelial cell line) were suspended in dalbeco-modified eagle medium (DMEM) containing 0.5% fetus bovine serum (abbreviated as FBS)˜(100 μl) and incubated in 96 well-microplate over day and night. The test compound dissolved in various kinds of solvents at various concentrations (20 μl) and Tumor Necrosis Factor-α (TNF-α (Genzyme Co, Cat. No. TNF-H)) dissolved in DMEM at the concentration of 12.5 ng/ml (80 μl) were added thereto. After incubation for 24 hours, the supernatant (200 μl) was recovered to assay the quantity of IL-6 using Enzyme Linked Immuno […] Assay (ELISA) Method (R&D Systems Co., Cat. No. D6050), to calculate inhibitory activity of the test compound and determine 50% inhibitory concentration (IC50). To the cells from which the supernatant was removed, a solution of brom 3-(4,5-dimethyl-2-thiazolyl)-2,5-diphenyl-2H-tetrazolinium (abbreviated as MTT (Dojin Chemical Laboratory, Cat. No. 345-01821)) dissolved in DMEM containing 10% FBS at the concentration of 0.5 mg/ml (100 μl) was added and incubated for 3 hours. After removing MTT solution, methanol (100 μl) was added thereto. After lyse the cells, the intensity of absorbance on 570 nm as a control of 690 nm was determined to assay cellular toxicity of the test compound.

[2] = test system: A549 cells (human lung epithelial cell line); test: Cellular toxicity in A549 cells (MTT); settings: at 10 μM
Method: as §1, §2

[3] = test system: peripheral monocyte prepared from healthy human blood; test: Cellular toxicity in peripheral monocyte (MTT); settings: at 1 μM
Method: (§3) (2) Assaying Inhibitory Activity on IL-12 Production and Cellular Toxicity
(§4) 2.0×10^5 of peripheral monocyte prepared from healthy human blood by Ficole gravity centrifugation method (Pharmacia Biotech Co, Cat. No. 17-1440-02) were suspended in RPMI1640 medium containing 10% FBS (170 μl). The test compound dissolved in various kinds of solvents at the various concentrations (10 μl) and 6000 units/ml of Interferon-γ (IFN-γ (Serotec Co, Cat. No. PHP050)) (10 μl) dissolved in RPMI1640 medium containing 10% FBS. After incubation for 24 hours in 96 well-microplate, lipopolysaccharide (6 μg/ml) dissolved in RPMI1640 medium containing 10% FBS (LPS (Difco Co., Cat. No. 3120-25-0)) (10 μl) was added thereto. After incubation for 20 hours, the supernatant (150 μl) was recovered to assay the quantity of IL-12 using ELISA Method (R&D Systems Co, Cat. No. D1200), calculate for inhibitory activity of the test compound and determine 50% inhibitory concentration (IC50) (see J. Exp. Med., 183, 147 (1996)). To the cells from which the supernatant (150 μl) was removed, a solution of MTT dissolved in RPMI1640 medium containing 10% FBS at 1 mg/ml (50 μl) was added and incubated for 3 hours. 2-Propanol containing 0.04N HCl (100 μl) was added thereto. After lyse the cells, the intensity of absorbance on 570 nm as a control of 690 nm was determined to assay cellular toxicity of the test compound.

[4] = test system: IL-12 production in peripheral monocyte prepared from healthy human blood; test: Inhibitory activity on IL-12 production (IFN-γ/LPS-stimulated peripheral monocyte, ELISA); settings: IFN-γ 24 hours then LPS 20 hours, IL-12 in supernatant by ELISA
Method: as §3, §4

| IC50 [1] [nM] | SMILES | cellular toxicity [2] | cellular toxicity [3] | IC50 [4] [nM] |
| --- | --- | --- | --- | --- |
| 4400 | O=S1(=O)CC(S(=O)(=O)c2ccccc2)c2c(OCc3cccnc3)cccc21 (stereo not shown) [Example 20(4) free compound, 4-(Pyridin-3-ylmethyl) oxy-3-phenylsulfonyl-2,3-dihydro-1,1-dioxidebenzo[b]thiophene] | no cellular toxicity |  |  |
|  | O=S1(=O)CC(S(=O)(=O)c2ccccc2)c2c(OCc3cccnc3)cccc21 (stereo not shown) [Example 20(4) hydrochloride, 4-(Pyridin-3-ylmethyl) oxy-3-phenylsulfonyl-2,3-dihydro-1,1-dioxidebenzo[b]thiophene] |  | no cellular toxicity | 110 |
